For series [1] the following is noted: cited from earlier work; for Volume of distribution (in words): human / vertebrate, relative statement.
The conditions of series [2]: cited from earlier work.
Series [3] is described as follows: Locust hemolymph kinetics after injection into the hemolymph (LCMS). The procedure:
The insects may be obtained from local suppliers or bred in house. The grasshoppers were reared under crowded conditions at 28° C. and a 12:12 dark:light photocycle and fed fresh grass and bran. Before experiments the grasshoppers were fed ecologically cultivated wheat for two weeks. Animals used are adult males (in some experiments females) between two to four weeks after adult emergence. Test compounds are administrated into the hemolymph by use of a Hamilton syringe and inserting the needle between two abdominal terga or administered intraintestinal by use of a catheter or a steel probe. At various time points after administration hemolymph samples are taken for quantitative determination of drug concentration in the hemolymph. The samples are snap-frozen and stored until analyses. Drug concentration is analysed by HPLC, LC/MSMS or other methods. In studies of drug retention various organs e.g. heart, fat bodies and brain are dissected at various times after drug administration. The tissues are washed, snap-frozen and stored until analyses. At analyses the tissues are homogenized/vortexed/sonicated and centrifuged. The drug concentration in the tissues is determined as above.
(§1) 40 ul of an approximately 5 mg/ml solution of quinidine was injected into the hemolymph of Locusts (Locusta migratoria). The test compound was administered by using a Hamilton syringe. At 5, 15, 45, 120, and 360 minutes after administration (10 ul) hemolymph was collected from each locust with a calibrated capillary tube by puncturing the ventral membrane between the head and the thorax and immediately blown into a tube containing 40 ul aqua dest and 100 ul of acetonitrile. Each sample was centrifuged for 5 minutes (10 000 g at 4° C.) and 100 ul of the supernatants were transferred to new test tubes for LCMS analysis.
(§2) The test compound was administered by using a Hamilton syringe. At 5, 15, 45, 120, and 360 minutes after administration (10 ul) hemolymph was collected from each locust with a calibrated capillary tube by puncturing the ventral membrane between the head and the thorax and immediately blown into a tube containing 40 ul aqua dest and 100 ul of acetonitrile. Each sample was centrifuged for 5 minutes (10 000g at 4° C.) and 100 ul of the supernatants were transferred to new test tubes for LCMS analysis.
as §1, with “caffeine” for “quinidine”, “000g” for “000 g”
as §2
Mianserin was injected into the hemolymph of Locusts (Locusta migratoria). The administered volume was 40 ul (administered by using a Hamilton syringe) at a concentration of 8.8 mg/ml. At 5, 15 and 45 minutes after administration (2×20 ul) hemolymph was collected from the locusts with a calibrated capillary tube by puncturing the ventral membrane between the head and the thorax and immediately blown into a tube containing 60 ul aqua dest and 200 ul of acetonitrile.

Where [4] appears, read: Locusta migratoria, in vivo, 0.4 mg per locust (approximately).
[5] abbreviates: Locusta migratoria, in vivo, 0.2 mg per locust (approximately).
Where [6] appears, read: locust, after intrahemolymphic administration, comparison between test compounds.

With `CC(C)NCC(O)COc1cccc2ccccc12` (stereo not drawn) [propranolol], in series [1], the “Volume of distribution (in words)” value was “much larger volume of distribution”. In series [1] (human, compared to atenolol), the “Half life (in words)” value is recorded as “much shorter half life”.
Turning to `CN(C)C(=O)C(CCN1CCC(O)(c2ccc(Cl)cc2)CC1)(c1ccccc1)c1ccccc1` [loperamide], in series [2], the “Solubility (in words)” value was “less soluble”. In series [3] (setting [4]), this compound had a concentration at 5 min of 5600 ng/mL, a concentration at 15 min of 3000 ng/mL and a concentration at 45 min of 1700 ng/mL.
For the compound `Cn1c(=O)c2c(ncn2C)n(C)c1=O` [caffeine], the “Volume of distribution (in words)” value in series [1] is recorded as “much lower volume of distribution compared to propranolol”. Moreover, in series [3] (setting [5]), the concentration at 5 min is 9280 ng/mL, the concentration at 15 min worked out at 9010 ng/mL, the concentration at 45 min came to 8780 ng/mL and the concentration at 120 min worked out at 6820 ng/mL. The compound also had a concentration at 360 min in series [3] (setting [5]) of 5500 ng/mL. In series [3] (setting [4]), this compound returned a concentration at 5 min of 29000 ng/mL, a concentration at 15 min of 24000 ng/mL and a concentration at 45 min of 23000 ng/mL. Besides, the “Hemolymph elimination / clearance (in words)” value in series [3] (setting [6]) was “non dose dependent hemolymph clearance”.
Turning to `O=C1CC2(CCCC2)CC(=O)N1CCCCN1CCN(c2ncccn2)CC1` [buspirone], in series [3] (setting [4]), the concentration at 5 min is 10700 ng/mL, the concentration at 15 min was 6500 ng/mL and the concentration at 45 min worked out at 3800 ng/mL. The “Hemolymph elimination / clearance (in words)” value in series [3] (setting [6]) is “increased elimination similar to haloperidol”.
For `O=c1n(CCCN2CCN(c3cccc(Cl)c3)CC2)nc2ccccn12` [trazodone], the “Hemolymph elimination / clearance (in words)” value in series [3] (in vivo) is on record as “stable for 15 minutes”.
